Laboratory results reported in patent US12509431B2, “1,4-dihydroquinazolinone compounds and uses thereof” (Edgewise Therapeutics, Inc., priority 2022, dated 2025).

Assays:
Assay type in all cases: biochemical
Conditions in all cases: Table 8
Porcine Atria myofibrils = test: Myofibril ATPase assay (PK/LDH NADH-coupled), atria myofibrils
How it was run: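 Porcine atrial myofibril ATPase followed via PK/LDH-coupled NADH depletion, absorbance at 340 nm read every 1.5-2 min over 75 min. Slopes (mAU/min) normalized to vehicle as 100% and fit to a 4-parameter logistic; EC25% derived, plus EC50% for inhibitors.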

[1] = molecular target: T1, Porcine Ventricle myofibrils (left ventricle of Yucatan minipigs) (Sus scrofa, UniProt P79293); test: Myofibril ATPase assay (PK/LDH NADH-coupled), ventricle myofibrils
T1 construct: Myofibrils from porcine cardiac muscle was isolated from the left ventricle of Yucatan minipigs; tissue Exemplar Genetics; host or cells: left ventricle of Yucatan minipigs
T1 sequence (P79293 whole entry): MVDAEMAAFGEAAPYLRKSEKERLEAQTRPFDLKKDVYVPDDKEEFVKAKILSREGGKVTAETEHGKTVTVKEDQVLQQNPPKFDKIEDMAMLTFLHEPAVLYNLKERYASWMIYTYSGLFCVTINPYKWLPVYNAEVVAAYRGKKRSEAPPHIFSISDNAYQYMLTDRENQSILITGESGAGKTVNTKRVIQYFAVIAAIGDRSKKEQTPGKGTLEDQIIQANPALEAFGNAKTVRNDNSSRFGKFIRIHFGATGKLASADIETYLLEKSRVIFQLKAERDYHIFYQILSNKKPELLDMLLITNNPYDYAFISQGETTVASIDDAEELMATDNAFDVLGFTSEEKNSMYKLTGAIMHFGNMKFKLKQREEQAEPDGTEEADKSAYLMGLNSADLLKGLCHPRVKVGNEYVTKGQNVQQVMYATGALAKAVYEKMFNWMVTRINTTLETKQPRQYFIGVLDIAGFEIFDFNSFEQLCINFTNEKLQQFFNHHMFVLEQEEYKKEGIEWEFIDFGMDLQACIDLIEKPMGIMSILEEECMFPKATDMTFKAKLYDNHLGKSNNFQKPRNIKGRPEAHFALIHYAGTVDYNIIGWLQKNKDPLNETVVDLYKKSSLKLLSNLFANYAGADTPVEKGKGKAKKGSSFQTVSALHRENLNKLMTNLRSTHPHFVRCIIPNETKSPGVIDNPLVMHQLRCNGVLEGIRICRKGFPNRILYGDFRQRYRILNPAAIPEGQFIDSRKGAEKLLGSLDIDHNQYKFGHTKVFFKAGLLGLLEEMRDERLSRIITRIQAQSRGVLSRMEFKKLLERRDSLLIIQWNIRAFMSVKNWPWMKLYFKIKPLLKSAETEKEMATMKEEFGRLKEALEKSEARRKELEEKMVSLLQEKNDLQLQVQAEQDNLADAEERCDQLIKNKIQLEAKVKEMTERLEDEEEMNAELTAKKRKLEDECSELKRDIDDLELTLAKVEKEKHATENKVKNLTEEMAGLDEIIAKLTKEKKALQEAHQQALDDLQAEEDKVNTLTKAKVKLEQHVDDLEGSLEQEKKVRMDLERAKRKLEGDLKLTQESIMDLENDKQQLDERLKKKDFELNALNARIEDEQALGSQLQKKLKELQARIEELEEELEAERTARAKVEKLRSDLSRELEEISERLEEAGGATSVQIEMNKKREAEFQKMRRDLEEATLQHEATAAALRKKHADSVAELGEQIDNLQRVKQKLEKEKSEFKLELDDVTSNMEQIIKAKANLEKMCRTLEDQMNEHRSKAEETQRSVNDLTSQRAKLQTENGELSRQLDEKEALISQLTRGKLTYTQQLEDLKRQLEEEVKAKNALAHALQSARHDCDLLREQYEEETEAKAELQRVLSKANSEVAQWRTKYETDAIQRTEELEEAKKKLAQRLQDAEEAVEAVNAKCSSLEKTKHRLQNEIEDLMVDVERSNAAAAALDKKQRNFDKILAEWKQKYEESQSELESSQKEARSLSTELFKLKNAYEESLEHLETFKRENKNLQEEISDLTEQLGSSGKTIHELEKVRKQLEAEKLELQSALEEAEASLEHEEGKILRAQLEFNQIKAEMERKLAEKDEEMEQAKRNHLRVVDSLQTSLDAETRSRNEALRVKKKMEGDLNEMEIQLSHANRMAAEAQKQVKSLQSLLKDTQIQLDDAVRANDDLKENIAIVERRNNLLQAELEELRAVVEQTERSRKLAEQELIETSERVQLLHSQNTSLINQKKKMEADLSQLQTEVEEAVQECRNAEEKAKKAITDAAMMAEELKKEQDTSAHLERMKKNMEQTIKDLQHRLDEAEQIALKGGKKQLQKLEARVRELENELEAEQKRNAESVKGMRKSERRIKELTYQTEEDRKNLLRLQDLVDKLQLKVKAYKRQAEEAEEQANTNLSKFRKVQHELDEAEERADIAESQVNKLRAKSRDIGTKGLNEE
How it was run: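 Yucatan minipig left-ventricle myofibrils; ATPase measured by PK/LDH-coupled NADH loss at 340 nm, read every 1.5-2 min for 75 min. Slopes normalized to vehicle (100%) and fit to 4-parameter logistic model; EC25 and, for inhibitors, EC50 calculated.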

[2] = tested on: Rabbit Skeletal myofibrils (rabbit psoas muscle); test: Myofibril ATPase assay (PK/LDH NADH-coupled), skeletal myofibrils
How it was run: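 Rabbit psoas myofibrils in pCa (PIPES/CaCl2/EGTA, pH 7.0) buffer; ADP coupled via PK/LDH to NADH loss, read at 340 nm every 1.5–2 min for 75 min. Slopes normalized to vehicle (100%) and fit to 4-parameter logistic for EC25, plus EC50 for inhibitors.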

| Compound | Porcine Atria IC25 (Porcine Atria myofibrils) | Porcine Ventricle IC25 [1] | Rabbit Psoas IC25 [2] |
| --- | --- | --- | --- |
| C[C@@H](NC(=O)CN1Cc2c(ccc(F)c2F)NC1=O)c1nnc2c(Cl)cc(C(F)(F)F)cn12 [Compound B97] | 1.43 µM | 4.796 µM | 8.892 µM |
| C[C@H](NC(=O)CN1Cc2c(ccc(F)c2F)NC1=O)c1nnc2c(Cl)cc(C(F)(F)F)cn12 [Compound B98] | 100.00 µM | 72.38 µM | 93.47 µM |
| C[C@@H](NC(=O)CN1Cc2c(ccc(F)c2F)NC1=O)c1ccncc1F [Compound B99] | 0.70 µM | 100 µM | 100 µM |
| C[C@H](NC(=O)CN1Cc2c(ccc(F)c2F)NC1=O)c1ccncc1F [Compound B100] | 0.03 µM | 0.7409 µM | 0.1246 µM |
| O=C(CN1Cc2c(ccc(F)c2F)NC1=O)N[C@@H]1COc2c(F)cc(F)cc2C1 [Compound B101] | 0.15 µM | 0.5759 µM | 1.059 µM |
| O=C(CN1Cc2c(ccc(F)c2F)NC1=O)N[C@H]1COc2c(F)cc(F)cc2C1 [Compound B102] | 0.10 µM | 6.262 µM | 7.621 µM |
| C[C@@H](NC(=O)CN1Cc2c(ccc(F)c2F)NC1=O)c1c(F)cncc1F [Compound B103] | 0.03 µM | 1.132 µM | 0.426 µM |
| C[C@H](NC(=O)CN1Cc2c(ccc(F)c2F)NC1=O)c1c(F)cncc1F [Compound B104] | 2.79 µM | 100 µM | 100 µM |
| C[C@@H](NC(=O)CN1Cc2c(ccc(F)c2F)NC1=O)c1ncc(C#N)cn1 [Compound B105] | 0.11 µM | 6.381 µM | 4.205 µM |
| C[C@H](NC(=O)CN1Cc2c(ccc(F)c2F)NC1=O)c1ncc(C#N)cn1 [Compound B106] | 0.09 µM | 0.4765 µM | 0.3028 µM |
| C[C@@H](NC(=O)CN1Cc2c(ccc(F)c2F)NC1=O)c1ccc(C(F)(F)F)cn1 [Compound B107] | 100.00 µM | 100 µM | 100 µM |
| C[C@H](NC(=O)CN1Cc2c(ccc(F)c2F)NC1=O)c1ccc(C(F)(F)F)cn1 [Compound B108] | 0.46 µM | 3.587 µM | 1.4 µM |
| C[C@@H](NC(=O)CN1Cc2c(ccc(F)c2F)NC1=O)c1ncncc1F [Compound B109] | 12.19 µM | 100 µM | 13.9 µM |
| C[C@H](NC(=O)CN1Cc2c(ccc(F)c2F)NC1=O)c1ncncc1F [Compound B110] | 0.04 µM | 0.5595 µM | 0.0558 µM |
| C[C@@H](NC(=O)CN1Cc2c(ccc(F)c2C#N)NC1=O)c1ccc(C#N)cn1 [Compound B111] | 100.00 µM | 100 µM | 0.564 µM |

The remaining lines, values ahead:

| Porcine Atria IC25 (Porcine Atria myofibrils) | Porcine Ventricle IC25 [1] | Rabbit Psoas IC25 [2] | Compound |
| --- | --- | --- | --- |
| 1.51 µM | 2.318 µM | 0.079 µM | C[C@H](NC(=O)CN1Cc2c(ccc(F)c2C#N)NC1=O)c1ccc(C#N)cn1 [Compound B112] |
| 0.16 µM | 0.233 µM | 0.09089 µM | C[C@@H](NC(=O)CN1Cc2c(F)cccc2NC1=O)c1ccc(C#N)cc1F [Compound B113] |
| 0.12 µM | 0.1673 µM | 0.0208 µM | C[C@H](NC(=O)CN1Cc2c(F)cccc2NC1=O)c1ccc(C#N)cc1F [Compound B114] |
| 100.00 µM | 100 µM | 100 µM | C[C@@H](NC(=O)CN1Cc2c(C#N)cccc2NC1=O)c1ccc(C#N)cn1 [Compound B115] |
| 0.22 µM | 0.6721 µM | 0.0743 µM | C[C@H](NC(=O)CN1Cc2c(C#N)cccc2NC1=O)c1ccc(C#N)cn1 [Compound B116, 2-(5-Cyano-2-oxo-1,4-dihydroquinazolin-3-yl)-N-[(1S)-1-(5-cyanopyridin-2-yl)ethyl]acetamide] |
| 0.15 µM | 1.967 µM | 0.2366 µM | N#Cc1cc(F)c2c(c1)OC[C@H]2NC(=O)CN1Cc2c(ccc(F)c2C#N)NC1=O [Compound B117] |
| 0.07 µM | 0.11 µM | 0.0136 µM | N#Cc1cc(F)c2c(c1)OC[C@@H]2NC(=O)CN1Cc2c(ccc(F)c2C#N)NC1=O [Compound B118] |
| 0.12 µM | 0.1665 µM | 0.0677 µM | N#Cc1ccc2c(c1)C1(CC1)N(CC(=O)N[C@@H]1COc3cc(F)cc(F)c31)C(=O)N2 [Compound B121] |
| 1.31 µM | 100 µM | 100 µM | N#Cc1ccc2c(c1)C1(CC1)N(CC(=O)N[C@H]1COc3cc(F)cc(F)c31)C(=O)N2 [Compound B122] |
| 0.36 µM | 1.87 µM | 0.3262 µM | N#Cc1cc(F)c2c(c1)OC[C@@H]2NC(=O)CN1Cc2c(ccc(F)c2F)NC1=O [Compound B124] |
| 1.62 µM | 100 µM | 1.552 µM | C[C@@H](NC(=O)CN1Cc2c(C#N)cccc2NC1=O)c1ncc(C#N)cc1F [Compound B125] |
| 0.07 µM | 0.3461 µM | 0.04006 µM | C[C@H](NC(=O)CN1Cc2c(C#N)cccc2NC1=O)c1ncc(C#N)cc1F [Compound B126] |
| 0.26 µM | 100 µM | 3.992 µM | C[C@@H](NC(=O)CN1Cc2c(ccc(C#N)c2F)NC1=O)c1ccc(C#N)cc1F [Compound B129] |
| 100.00 µM | 100 µM | 0.3456 µM | C[C@@H](NC(=O)CN1Cc2c(ccc(F)c2C#N)NC1=O)c1ncc(C#N)cc1F [Compound B131] |
| 0.08 µM | 0.1715 µM | 0.0313 µM | C[C@H](NC(=O)CN1Cc2c(ccc(F)c2C#N)NC1=O)c1ncc(C#N)cc1F [Compound B132] |
| 0.51 µM | 15.88 µM | 1.618 µM | C[C@@H](NC(=O)CN1Cc2c(ccc(F)c2F)NC1=O)c1ccc(C#N)cn1 [Compound B135] |
| 0.42 µM | 0.764 µM | 0.0645 µM | C[C@H](NC(=O)CN1Cc2c(ccc(F)c2F)NC1=O)c1ccc(C#N)cn1 [Compound B136] |
| 0.12 µM | 0.6995 µM | 0.1155 µM | C[C@@H](NC(=O)CN1C(=O)Nc2ccc(F)cc2C12CC2)c1ccc(C#N)cn1 [Compound B137] |
| 1.53 µM | 100 µM | 100 µM | C[C@H](NC(=O)CN1C(=O)Nc2ccc(F)cc2C12CC2)c1ccc(C#N)cn1 [Compound B138] |
| 0.05 µM | 0.1215 µM | 0.01393 µM | N#Cc1c(F)ccc2c1CN(CC(=O)N[C@@H]1COc3cc(F)cc(F)c31)C(=O)N2 [Compound B139] |
| 1.10 µM | 55.23 µM | 1.501 µM | N#Cc1c(F)ccc2c1CN(CC(=O)N[C@H]1COc3cc(F)cc(F)c31)C(=O)N2 [Compound B140] |
